Experimental data from article doi:10.1101/2025.10.28.685111v1.
Like-named read-outs stand apart in the source and are kept apart here.

Assays:
[1] = system: T1, Salmonella Typhimurium ATCC 14028 (STm); test: microbe, parasite or virus in culture; set-up: Broth microdilution growth inhibition of STm at 500 uM in MHB, M9A or M9I, OD600; settings: Salmonella enterica
T1 construct: ATCC 14028
Method: Antimicrobial susceptibility was assessed using the traditional CLSI minimum inhibitory concentration (MIC) microplate dilution methods with a few modifications ([59]). Briefly, each compound (dissolved in MQ H2O for all pantetheinamides, or DMSO for pantothenamides) was serially diluted in 96-well plates to the desired concentrations. In the case of checkerboard assays, secondary compounds were separately diluted and added to the plate. Mid-exponential phase media-adapted bacteria were added at 5 × 10^5 CFU/mL and in the case of M9I or M9A cultures, the plates were sealed with a gas permeable moisture barrier seal (FroggaBio, Canada) to prevent excessive evaporation, before incubation at 37 °C and 350 rpm, using a tabletop orbital plate shaker (OHAUS, USA). Growth was quantified based on absorbance at 600 nm (OD600) using a microplate reader. The plate was monitored until there was visible growth in the untreated control, but without allowing for overgrowth: ∼14-16h (OD600 > 0.3) in MHB, ∼36 h (OD600 > 0.2) in M9A, and ∼72-120 h (OD600 > 0.15) in M9I. The IC50 was determined using a four-parameter logarithmic curve on Prism v9.0. All experiments were done at minimum in a biological triplicate. […] To accomplish this, the compounds were screened for their ability to reduce STm growth at a high concentration (500 μM) in various media that reflect nutrient-related facets of either extracellular or intracellular environments (Fig. 2a). Mueller-Hinton broth (MHB)—the medium most widely employed for antibacterial testing—was used to represent nutrient-rich extracellular environments such as the gut, while aspects of the nutrient-limited intramacrophage environment were mimicked by using M9-minimal media containing either acetate (M9A) or itaconate (M9I) as the sole carbon source. Growth in M9A requires the glyoxylate shunt, simulating the use of fatty acids ([33]), whereas growth in M9I, as shown in our previous study, requires an active itaconate-degradation pathway and induces excess oxidative stress that is reflective of the intramacrophage environment ([34]). Of the 75 compounds tested, 31 inhibited growth (by >50%) in M9I, six in M9A, and one in MHB. […] In particular, the pantothenamides 6-13 and 6-14 were active in M9A as well as M9I, with 6-13 being the only MHB active compounds. The other M9A active compounds were 1-03 and 1-17 from the “nitro” category and 4-02 and 4-08 from the “fluoro-alkyl” category.  Fig. 2: Screening the pantetheinamides library. a, Percentage growth inhibition of STm by each of the inhibitors in the library, tested at 500 µM in MHB, M9A, or M9I as the sole carbon source. Inhibition % values are summarized in Supplementary Data 1. b, The IC50 in M9I of a subset of the inhibitor library. The full dataset is shown in Fig. S1 and summarized in Supplementary Data 2. c, Dose-response curves in M9I, M9A, and MHB for selected inhibitors, fit to a four-parameter logarithmic curve. d, Tabulated IC50 (± 95% CI), cytotoxicity and selectivity index (given as the cytoxocity/IC50 in M9I) for the same inhibitors as in c. […] The full dataset is shown in Fig. S4a. g, Sample of results summarized in f showing the CFU of surviving STm inside the compound treated macrophages after 22 h. Data bars show the geometric mean of CFU/mL with error bars depicting the 95% CI. The vehicle control (± 95% CI) is shown as the red line. All experiments were independently repeated a minimum of 3 times, where n ≥ 4 for each condition. Significant results were determined using a one-way ANOVA with Dunnett’s multiple comparisons against the vehicle. ✱, p < 0.05; ✱✱, p < 0.01; ✱✱✱, p < 0.001; ✱✱✱✱, p < 0.0001; ns, non-significant, p > 0.05. “X” denotes that a concentration was omitted from the experiment due to toxicity.

[2] = system: T1, Salmonella Typhimurium ATCC 14028 (STm); test: microbe, parasite or virus in culture; set-up: Broth microdilution dose-response growth inhibition of STm in M9I, OD600, four-parameter fit; settings: Salmonella enterica, read-out: IC50 (µM)
Method: Antimicrobial susceptibility was assessed using the traditional CLSI minimum inhibitory concentration (MIC) microplate dilution methods with a few modifications ([59]). Briefly, each compound (dissolved in MQ H2O for all pantetheinamides, or DMSO for pantothenamides) was serially diluted in 96-well plates to the desired concentrations. In the case of checkerboard assays, secondary compounds were separately diluted and added to the plate. Mid-exponential phase media-adapted bacteria were added at 5 × 10^5 CFU/mL and in the case of M9I or M9A cultures, the plates were sealed with a gas permeable moisture barrier seal (FroggaBio, Canada) to prevent excessive evaporation, before incubation at 37 °C and 350 rpm, using a tabletop orbital plate shaker (OHAUS, USA). Growth was quantified based on absorbance at 600 nm (OD600) using a microplate reader. The plate was monitored until there was visible growth in the untreated control, but without allowing for overgrowth: ∼14-16h (OD600 > 0.3) in MHB, ∼36 h (OD600 > 0.2) in M9A, and ∼72-120 h (OD600 > 0.15) in M9I. The IC50 was determined using a four-parameter logarithmic curve on Prism v9.0. All experiments were done at minimum in a biological triplicate. […] Consequently, the activity was reported as an IC50 value, rather than traditional MICs. […] All other categories had 2-4 molecules with sub-100 μM IC50 values. The general trend in activities for the substituents β to the acyl amide saw CF3 (e.g. 4-01) > thiazole (e.g. 5-01) > NO2 (e.g. 1-01) > CH3 (e.g. 3-01). […] Replacement of the thioester with either a sulfonamide or triazole, rather than an amide, was detrimental to activity. […] Furthermore, increasing the conformational rigidity of the α-substituent correlated with higher IC50 values (e.g, 1-14, methyl < 1-15, dimethyl < 1-16, cyclo  Fig. 2: Screening the pantetheinamides library. a, Percentage growth inhibition of STm by each of the inhibitors in the library, tested at 500 µM in MHB, M9A, or M9I as the sole carbon source. Inhibition % values are summarized in Supplementary Data 1. b, The IC50 in M9I of a subset of the inhibitor library. The full dataset is shown in Fig. S1 and summarized in Supplementary Data 2. c, Dose-response curves in M9I, M9A, and MHB for selected inhibitors, fit to a four-parameter logarithmic curve. d, Tabulated IC50 (± 95% CI), cytotoxicity and selectivity index (given as the cytoxocity/IC50 in M9I) for the same inhibitors as in c. […] The full dataset is shown in Fig. S4a. g, Sample of results summarized in f showing the CFU of surviving STm inside the compound treated macrophages after 22 h. Data bars show the geometric mean of CFU/mL with error bars depicting the 95% CI. The vehicle control (± 95% CI) is shown as the red line. All experiments were independently repeated a minimum of 3 times, where n ≥ 4 for each condition. Significant results were determined using a one-way ANOVA with Dunnett’s multiple comparisons against the vehicle. ✱, p < 0.05; ✱✱, p < 0.01; ✱✱✱, p < 0.001; ✱✱✱✱, p < 0.0001; ns, non-significant, p > 0.05. “X” denotes that a concentration was omitted from the experiment due to toxicity.

[3] = M9A, acetate minimal medium, 36 h, read-out: % Growth Inhibition (Avg) / M9A
[4] = M9I, itaconate minimal medium, 72-120 h, read-out: % Growth Inhibition (Avg) / M9I
[5] = MHB, nutrient-rich medium, 14-16 h, read-out: % Growth Inhibition (Avg) / MHB

| Structure (SMILES) | inhibition at 500 µM [1, 3] [%] | inhibition at 500 µM [1, 4] [%] | inhibition at 500 µM [1, 5] [%] | IC50 [2] [µM] |
| --- | --- | --- | --- | --- |
| CC(C)(CO)[C@@H](O)C(=O)NCCC(=O)NCCNC(=O)/C=C/C(F)(F)F [4-04] | 37 | 94 | 0 | 5.1 |
| CC(C)(CO)[C@@H](O)C(=O)NCCC(=O)NCCNC(=O)C(F)C(F)(F)F (some centres unmarked) [4-07] | 15 | 94 | 1 | 30 |
| CC(C)(CO)[C@@H](O)C(=O)NCCC(=O)NCCNC(=O)C1CC1(F)F (some centres unmarked) [4-10] | 0 | 86 | 11 | 29 |
| CCCCCCCNC(=O)CCNC(=O)[C@H](O)C(C)(C)CO [6-13] | 100 | 100 | 90 | 0.13 |
| CCCCCCCC(=O)NCCNC(=O)[C@H](O)C(C)(C)CO [6-14] | 98 | 99 | 16 | 1.1 |
